Test results: ChEMBL document CHEMBL5647690, “Inhibition of demethylases by GSK-J1/J4” (Nature, 2014)

Tests used:
[1] = target: T1, Lysine-specific demethylase 2B (Homo sapiens, UniProt Q8NHM5); assay: Inhibition of KDM2B (1 to 650 residues)(unknown origin) by Alphalisa assay
T1 sequence (Q8NHM5 whole entry): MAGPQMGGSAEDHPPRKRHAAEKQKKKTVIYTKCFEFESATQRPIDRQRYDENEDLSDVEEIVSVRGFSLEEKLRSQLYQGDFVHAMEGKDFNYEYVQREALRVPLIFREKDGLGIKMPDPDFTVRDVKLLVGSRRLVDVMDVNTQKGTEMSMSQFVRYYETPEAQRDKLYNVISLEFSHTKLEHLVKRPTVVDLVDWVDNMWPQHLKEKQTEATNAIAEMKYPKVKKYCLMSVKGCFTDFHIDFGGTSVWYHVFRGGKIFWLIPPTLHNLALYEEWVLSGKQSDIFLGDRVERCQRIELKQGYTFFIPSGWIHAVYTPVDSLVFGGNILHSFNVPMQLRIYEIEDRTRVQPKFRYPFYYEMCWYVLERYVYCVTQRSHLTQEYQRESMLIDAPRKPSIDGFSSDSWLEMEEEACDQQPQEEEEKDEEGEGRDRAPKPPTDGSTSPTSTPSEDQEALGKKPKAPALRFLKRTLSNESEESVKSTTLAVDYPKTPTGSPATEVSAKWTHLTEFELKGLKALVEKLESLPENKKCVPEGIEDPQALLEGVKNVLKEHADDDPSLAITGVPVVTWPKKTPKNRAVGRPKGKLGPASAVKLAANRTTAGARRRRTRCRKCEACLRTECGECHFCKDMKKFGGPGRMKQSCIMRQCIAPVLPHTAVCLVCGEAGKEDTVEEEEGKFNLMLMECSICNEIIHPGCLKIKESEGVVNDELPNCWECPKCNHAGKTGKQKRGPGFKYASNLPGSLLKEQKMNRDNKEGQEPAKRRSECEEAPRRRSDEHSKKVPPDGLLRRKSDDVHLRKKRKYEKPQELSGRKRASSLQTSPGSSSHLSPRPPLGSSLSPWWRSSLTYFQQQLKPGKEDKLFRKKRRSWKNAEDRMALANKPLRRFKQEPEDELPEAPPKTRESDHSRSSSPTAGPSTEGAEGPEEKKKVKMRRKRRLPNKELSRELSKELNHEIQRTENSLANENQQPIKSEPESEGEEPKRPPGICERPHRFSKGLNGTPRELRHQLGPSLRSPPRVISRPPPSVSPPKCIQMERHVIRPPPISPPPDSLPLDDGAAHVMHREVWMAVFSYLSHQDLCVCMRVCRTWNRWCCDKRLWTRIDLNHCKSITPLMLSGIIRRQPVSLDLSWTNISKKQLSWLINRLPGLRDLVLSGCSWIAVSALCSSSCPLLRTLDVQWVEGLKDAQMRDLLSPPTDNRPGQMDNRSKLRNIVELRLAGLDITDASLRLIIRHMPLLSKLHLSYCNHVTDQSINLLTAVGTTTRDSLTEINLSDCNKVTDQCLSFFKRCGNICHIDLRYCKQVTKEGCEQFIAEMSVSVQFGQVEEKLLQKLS

[2] = target: T2, Lysine-specific demethylase 4B (Homo sapiens, UniProt O94953); assay: Inhibition of KDM4B (2 to 500 residues)(unknown origin) by Alphalisa assay
T2 sequence (O94953 whole entry): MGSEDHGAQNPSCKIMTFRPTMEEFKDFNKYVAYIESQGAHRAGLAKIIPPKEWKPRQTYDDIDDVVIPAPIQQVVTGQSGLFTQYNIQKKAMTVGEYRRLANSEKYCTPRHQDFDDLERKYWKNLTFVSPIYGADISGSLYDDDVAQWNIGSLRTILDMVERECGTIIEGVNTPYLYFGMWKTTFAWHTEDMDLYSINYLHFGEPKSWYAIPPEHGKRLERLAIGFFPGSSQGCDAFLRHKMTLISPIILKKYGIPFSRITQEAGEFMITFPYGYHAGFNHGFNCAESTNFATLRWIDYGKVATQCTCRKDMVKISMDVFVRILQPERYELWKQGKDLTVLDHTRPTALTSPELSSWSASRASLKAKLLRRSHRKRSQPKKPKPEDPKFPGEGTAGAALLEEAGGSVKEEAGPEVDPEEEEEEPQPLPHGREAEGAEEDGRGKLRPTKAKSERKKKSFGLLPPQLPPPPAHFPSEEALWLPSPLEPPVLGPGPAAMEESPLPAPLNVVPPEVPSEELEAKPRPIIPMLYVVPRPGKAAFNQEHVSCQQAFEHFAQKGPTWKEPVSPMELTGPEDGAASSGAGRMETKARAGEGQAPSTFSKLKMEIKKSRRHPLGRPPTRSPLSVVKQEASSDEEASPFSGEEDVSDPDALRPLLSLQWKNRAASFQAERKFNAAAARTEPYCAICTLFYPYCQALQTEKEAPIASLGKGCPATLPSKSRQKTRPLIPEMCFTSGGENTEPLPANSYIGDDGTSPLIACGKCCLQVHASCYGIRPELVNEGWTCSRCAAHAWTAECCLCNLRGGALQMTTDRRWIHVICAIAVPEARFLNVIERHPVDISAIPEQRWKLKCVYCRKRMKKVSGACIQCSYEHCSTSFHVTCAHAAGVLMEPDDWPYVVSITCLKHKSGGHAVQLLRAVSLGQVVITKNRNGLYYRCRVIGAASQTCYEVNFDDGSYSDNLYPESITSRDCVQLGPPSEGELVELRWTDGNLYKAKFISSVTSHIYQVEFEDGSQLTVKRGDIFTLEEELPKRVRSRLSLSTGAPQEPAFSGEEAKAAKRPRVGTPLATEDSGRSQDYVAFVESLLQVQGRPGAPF

[3] = target: Lysine-specific demethylase 5B (Homo sapiens, UniProt Q9UGL1); assay: Inhibition of KDM5B (1 to 809 residues)(unknown origin) by Alphalisa assay
[4] = Inhibition of epitope-tagged KDM5B (1 to 752 residues)(unknown origin) transfected in human U2OS cells using H3K4me2 peptide as substrate; type: cell-based

Sequence of Lysine-specific demethylase 5B (Q9UGL1 whole entry, the tested form may be a part): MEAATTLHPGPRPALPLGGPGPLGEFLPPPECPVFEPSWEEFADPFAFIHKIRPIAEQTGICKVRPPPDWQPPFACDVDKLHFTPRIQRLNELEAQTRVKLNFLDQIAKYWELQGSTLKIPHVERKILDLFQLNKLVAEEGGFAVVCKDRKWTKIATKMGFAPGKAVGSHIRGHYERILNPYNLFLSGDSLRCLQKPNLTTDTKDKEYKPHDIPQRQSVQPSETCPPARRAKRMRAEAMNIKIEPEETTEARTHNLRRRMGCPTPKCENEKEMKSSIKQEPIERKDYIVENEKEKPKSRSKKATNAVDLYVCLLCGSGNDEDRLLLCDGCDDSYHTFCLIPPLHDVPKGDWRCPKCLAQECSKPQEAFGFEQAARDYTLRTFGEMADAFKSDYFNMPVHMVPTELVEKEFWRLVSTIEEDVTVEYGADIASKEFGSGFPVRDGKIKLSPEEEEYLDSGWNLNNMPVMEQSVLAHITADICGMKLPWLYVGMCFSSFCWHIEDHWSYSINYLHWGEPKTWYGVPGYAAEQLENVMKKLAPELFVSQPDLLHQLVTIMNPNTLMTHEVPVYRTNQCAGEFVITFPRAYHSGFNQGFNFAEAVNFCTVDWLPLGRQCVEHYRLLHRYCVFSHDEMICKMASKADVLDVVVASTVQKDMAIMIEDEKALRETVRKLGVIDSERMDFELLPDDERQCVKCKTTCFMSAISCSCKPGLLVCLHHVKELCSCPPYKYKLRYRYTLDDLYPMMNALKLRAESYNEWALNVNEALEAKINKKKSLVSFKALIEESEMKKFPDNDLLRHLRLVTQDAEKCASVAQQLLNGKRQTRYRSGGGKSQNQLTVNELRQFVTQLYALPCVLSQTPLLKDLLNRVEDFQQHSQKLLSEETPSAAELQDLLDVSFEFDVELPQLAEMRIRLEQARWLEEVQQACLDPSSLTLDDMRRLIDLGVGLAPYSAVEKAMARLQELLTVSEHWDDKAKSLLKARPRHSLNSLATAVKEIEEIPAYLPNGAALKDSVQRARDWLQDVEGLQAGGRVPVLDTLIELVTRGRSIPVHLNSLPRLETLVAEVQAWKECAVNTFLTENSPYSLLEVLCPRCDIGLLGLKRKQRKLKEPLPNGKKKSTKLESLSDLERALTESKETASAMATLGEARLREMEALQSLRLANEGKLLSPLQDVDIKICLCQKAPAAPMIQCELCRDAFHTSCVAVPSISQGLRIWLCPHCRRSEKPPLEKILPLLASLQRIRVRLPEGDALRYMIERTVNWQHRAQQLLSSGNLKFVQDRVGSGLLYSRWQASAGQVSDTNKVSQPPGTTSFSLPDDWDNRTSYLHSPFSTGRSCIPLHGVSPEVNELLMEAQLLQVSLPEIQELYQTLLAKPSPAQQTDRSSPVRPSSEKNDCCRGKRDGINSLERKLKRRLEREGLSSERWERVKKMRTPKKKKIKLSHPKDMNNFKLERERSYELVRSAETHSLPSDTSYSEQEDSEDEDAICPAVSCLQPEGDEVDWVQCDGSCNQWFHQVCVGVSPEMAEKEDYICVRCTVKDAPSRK

| IC50 [1] | IC50 [2] | IC50 [3] | IC50 [4] | Compound |
| --- | --- | --- | --- | --- |
| 21 µM | 73 µM | 0.17 µM | – | O=C(O)CCNc1cc(N2CCc3ccccc3CC2)nc(-c2ccccn2)n1 |
| 2.1 µM | 3.8 µM | 9.7 µM | 3.1 µM | CCOC(=O)CCNc1cc(N2CCc3ccccc3CC2)nc(-c2ccccn2)n1 |
